Laboratory results reported in paper PMC7179312 (Antimicrobial Agents and Chemotherapy, 2020).

Tests used:
[1] = test system: P. aeruginosa PAM1154 carrying pUCP24 vector (PAM4175); assay: MIC, CLSI broth microdilution; assay type: cell-based; conditions: Pseudomonas aeruginosa, drug alone
Source text: The effects of KPC mutations on resistance to various antibiotics were investigated. For these studies, pUCP24 plasmids carrying wild-type and mutant blaKPC-2 genes as well as the pUCP24 vector were transformed into PAM1154, an efflux-deficient strain of Pseudomonas aeruginosa. In this host, the effect of β-lactamases on β-lactam MIC is amplified due to the slowed uptake of β-lactams across the low-permeability outer membrane without interference by efflux of either β-lactams or BLIs. Consequently, this host allows detection of β-lactamase activity (as an MIC increase) of low-catalytic-efficiency enzymes that rely heavily on the low permeability of the outer membrane. Using the strain that lacks efflux pumps ensures no interference from efflux in interpreting results. We next evaluated the steady-state protein expression levels in bacterial cells. […] The observed discrepancy with our results could be attributed to the difference in either the expression vector or host bacteria.
For microbiological studies, wild-type blaKPC-2 and its mutant variants were cloned into the shuttle vector pUCP24. Resulting plasmids were transformed in the efflux-deficient strain of P. aeruginosa PAM1154 using selection on 15 μg/ml of gentamicin. Using a strain of P. aeruginosa as opposed to E. coli as a host for various cloned genes was based on the following consideration. As well documented elsewhere ([41]), P. aeruginosa has a low-permeability outer membrane; consequently, the effect of β-lactamases on MIC is amplified in P. aeruginosa compared to that in E. coli due to the slowed uptake of β-lactams. Thus, this host is appropriate to detect β-lactamase activity (as an MIC increase) of low-catalytic-efficiency enzymes that rely heavily on low permeability of the outer membrane. […] MICs were determined using the Clinical and Laboratory Standards Institute (CLSI) broth microdilution method as described in CLSI document M07-A11 ([42]). Potentiation of antibiotic activity by various BLIs in bacterial strains carrying wild-type (WT) and mutant KPC-2 genes was performed using standard checkerboard methodology ([43]). BLI potency was defined as PV50 (PV, potentiation value). PV50 is the minimal concentration of a BLI that is required to reduce the antibiotic MIC to the middle of the MIC range (E50) where the highest MIC is the MIC for a KPC-producing strain with no inhibitor added and the lowest MIC is the MIC for the vector-only strain, corresponding to the complete inhibition of KPC. E50 is calculated as the square root of the product of the antibiotic MICs for the KPC-producing and the vector-only strains.

[2] = test system: P. aeruginosa PAM1154 carrying pUCP24 vector (PAM4175); assay: Checkerboard potentiation of antibiotic activity by BLIs; assay type: cell-based, Pseudomonas aeruginosa
KPC-2 L169P = molecular target: T1, KPC-2 L169P (Klebsiella pneumoniae, UniProt Q9F663, L168P); assay: Steady-state Ki with nitrocefin as substrate (method of Waley); assay type: biochemical; conditions: NCF substrate, 10 min preincubation, 37°C
T1 construct: 6xHis (C); made in house; host or cells: E. coli (pET28a construct; BL21(DE3) pLys is named only for wild type and D179Y)

KPC-2 [3] = molecular target: T2, KPC-2 (Klebsiella pneumoniae, UniProt Q9F663); assay: IC50 of inhibition of ceftazidime hydrolysis; assay type: biochemical
T2 construct: 6xHis (C); made in house; host or cells: E. coli BL21(DE3) pLys, pET28a
Protocol: (§1) Enzymes were mixed with BLIs at concentrations varying from 160 to 0.0027 μM in buffer A and incubated for 10 min, and 100 μM (for wild-type KPC-2) or 10 μM (for the D179Y mutant) CFTZ was subsequently added. Substrate cleavage profiles were recorded at 260 nm every 10 s for 10 min. Initial rates of reaction were calculated and exported to Prism software to calculate IC50s using the “dose-response – inhibition, variable slope (four parameters)” equation.

KPC-2 D179Y = molecular target: T3, KPC-2 D179Y (Klebsiella pneumoniae, UniProt Q9F663, D178Y); assay: IC50 of inhibition of ceftazidime hydrolysis; assay type: biochemical
T3 construct: 6xHis (C); made in house; host or cells: E. coli BL21(DE3) pLys, pET28a
Protocol: as §1

KPC-2 [4] = molecular target: T2, KPC-2; conditions: NCF hydrolysis; cited from earlier work

For CO/N=C(\C(=O)N[C@@H]1C(=O)N2C(C(=O)[O-])=C(C[N+]3(C)CCCC3)CS[C@H]12)c1csc(N)n1 [Cefepime, cefepime], the MIC [1] was 0.125 µg/mL, the “Antibiotic MIC with avibactam at 4 μg/ml” value ([2]; avibactam 4 μg/ml) was 0.125 µg/mL and the “Antibiotic MIC, No BLI” value ([2]; no BLI) was 0.125 µg/mL. The “Antibiotic MIC with vaborbactam at 8 μg/ml” value ([2]; vaborbactam 8 μg/ml) was 0.125 µg/mL.

For O=C(O)C[C@@H]1CC[C@H](NC(=O)Cc2cccs2)B(O)O1 [Vaborbactam, vaborbactam], the MIC [1] was > 256 µg/mL, the Ki (KPC-2 L169P) was 190 ± 20 nM and the IC50 (KPC-2 [3]) was 940 ± 20 nM. For the same compound, the IC50 (KPC-2 D179Y) was 1900 ± 300 nM, the Kd (KPC-2 [4]) was 8 nM and the k2/K (KPC-2 [4]) was 5.5 ± 0.5 × 10^3 M^−1 s^−1. The “k−2” value (KPC-2 [4]) was 4.3 ± 0.6 × 10^−5 s^−1.
